≈ marks a conversion by molar mass, not a printed value.
What was measured:
[1] = test system: Heliothis virescens; experiment: Growth inhibition of neonate larvae of Heliothis virescens (tobacco budworm) at 250 mg/l after 6 days relative to control; assay type: functional; settings: 144 h, read-out: GI
[2] = test system: Manduca sexta; experiment: Growth inhibition of neonate larvae of Manduca sexta at 250 mg/l after 6 days relative to control; assay type: functional; settings: 144 h, read-out: GI
[3] = test system: Helicoverpa zea; experiment: Growth inhibition of neonate larvae of Helicoverpa zea (corn earworm)at 250 mg/l after 6 days relative to control; assay type: functional; settings: 144 h, read-out: GI
[4] = test system: Spodoptera frugiperda; experiment: Antifeedant activity against fourth-instar larvae of Spodoptera frugiperda (fall armyworm) fed on compound treated savanna grass for 18 hr; assay type: functional, organism-based
[5] = test system: Spodoptera frugiperda; experiment: Phagostimulant activity in fourth-instar larvae of Spodoptera frugiperda (fall armyworm) fed on compound treated savanna grass for 18 hr; assay type: ADME, organism-based; settings: in vivo, po

Row | Compound | inhibition of growth at 250 µg/mL [1] | inhibition of growth at 250 µg/mL [2] | inhibition of growth at 250 µg/mL [3] | DC50 [4] | Activity [5]
1 | C/C=C(\C)OC(=O)[C@H]1[C@@H]2C(=O)[C@](C)([C@H]3CC[C@]4(C)[C@@H](CC(=O)O[C@H]4c4ccoc4)[C@]34O[C@@H]24)[C@@H](C(O)C(=O)OC)C1(C)C (stereo partly specified) [SWIETEMAHONIN G] | 44.3% | 32.8% | 48.1% | 13.8 µg/mL (≈ 23.6 µM) | –
2 | COC(=O)[C@H](C(=O)Oc1ccccc1)[C@H]1C(C)(C)[C@H](C(=O)Oc2ccccc2)[C@]2(O)C=C3[C@@H]4CC(=O)O[C@@H](c5ccoc5)[C@]4(C)CC[C@@H]3[C@@]1(C)C2=O [3,6-O,ODIBENZOYL-3-DETIGLOYL-2-HYDROXYISOSWIETENINE] | 33.8% | 6.24% | 13.5% | 233 µg/mL (≈ 328 µM) | –
3 | C/C=C(\C)OC(=O)[C@@H]1[C@@H]2C=C3[C@@H]4CC(=O)O[C@@H](c5ccoc5)[C@]4(C)CC[C@@H]3[C@@](C)(C2=O)[C@@H]([C@H](C(=O)OC)C(=O)Oc2ccccc2)C1(C)C [6-O-BENZOYLSWIETENINE] | 28.7% | 32.8% | 10.2% | 406 µg/mL (≈ 604 µM) | –
4 | CC1(C)[C@H]([C@@H](O)C(=O)O)[C@]2(C)C(=O)[C@@](O)(C=C3[C@@H]4CC(=O)O[C@@H](c5ccoc5)[C@]4(C)CC[C@@H]32)[C@H]1O [DEMETHYL-3-DETIGLOYL-2-HYDROXYISOSWIETENINE] | 24.5% | 13.2% | 11.1% | > 10000 µg/mL | –
5 | COC(=O)[C@H](O)[C@H]1C(C)(C)[C@H](C(=O)OCC(C)C)[C@@H]2CC3=C4CC(=O)O[C@@H](c5ccoc5)[C@]4(C)CC[C@@H]3[C@@]1(C)C2=O [3-O-ISOVALERYLSWIETENOLIDE] | 54.5% | 23.7% | 26.2% | 0.19 µg/mL (≈ 0.333 µM) | –
6 | COC(=O)[C@H](O)[C@H]1C(C)(C)[C@H](O)[C@]2(O)C=C3[C@@H]4CC(=O)O[C@@H](c5ccoc5)[C@]4(C)CC[C@@H]3[C@@]1(C)C2=O [3-DETIGLOYL-2-HYDROXYISOSWIETENINE] | 15.8% | 29.2% | 22.4% | 188 µg/mL (≈ 374 µM) | –
7 | COC(=O)[C@H](O)[C@H]1C(C)(C)[C@H](C(=O)Oc2ccccc2)[C@@H]2CC3=C4CC(=O)O[C@@H](c5ccoc5)[C@]4(C)CC[C@@H]3[C@@]1(C)C2=O [3-O-BENZOYLSWIETENOLIDE] | – | – | – | 244 µg/mL (≈ 414 µM) | –
8 | CCOC(=O)[C@@H](C(=O)OC)[C@H]1C(C)(C)[C@H](C(=O)OCC)[C@@H]2CC3=C4CC(=O)O[C@@H](c5ccoc5)[C@]4(C)CC[C@@H]3[C@@]1(C)C2=O [O,O-DIPROPIONYLSWIETENOLIDE] | 52.7% | 32.7% | 20.8% | 45.5 µg/mL (≈ 76 µM) | –
9 | C/C=C(\C)OC(=O)[C@H]1C(C)(C)[C@H]([C@@H](O)C(=O)OC)[C@]2(C)C(=O)[C@@]1(O)C=C1[C@@H]3CC(=O)O[C@@H](c4ccoc4)[C@]3(C)CC[C@@H]12 [2-HYDROXYSWIETENINE] | 62.6% | 31.7% | 28.2% | 65.8 µg/mL (≈ 113 µM) | –
10 | COC(=O)[C@H](O)[C@H]1C(C)(C)[C@H](O)[C@@H]2C=C3[C@@H]4CC(=O)O[C@@H](c5ccoc5)[C@]4(C)CC[C@@H]3[C@@]1(C)C2=O [3-DETIGLOYLISOSWIETENINE] | 56% | 17.8% | 15.2% | 101 µg/mL (≈ 208 µM) | –
11 | CCOC(=O)[C@@H]1[C@@H]2C=C3[C@@H]4CC(=O)O[C@@H](c5ccoc5)[C@]4(C)CC[C@@H]3[C@@](C)(C2=O)[C@@H]([C@@H](O)C(=O)OC)C1(C)C [3-O-PROPIONYL-3-DETIGLOYLISOSWIETENINE] | 32% | 12.5% | 13.5% | 81.9 µg/mL (≈ 151 µM) | –
12 | COC(=O)[C@H](C(=O)Oc1ccccc1)[C@H]1C(C)(C)[C@H](C(=O)Oc2ccccc2)[C@@H]2C=C3[C@@H]4CC(=O)O[C@@H](c5ccoc5)[C@]4(C)CC[C@@H]3[C@@]1(C)C2=O [3,6-O,O-DIBENZOYL-3-DETIGLOYLISOSWIETENINE] | 18.6% | 25.7% | 49.2% | – | Toxic
13 | CC1(C)[C@H](O)[C@@H]2C=C3[C@@H]4CC(=O)O[C@@H](c5ccoc5)[C@]4(C)CC[C@@H]3[C@@](C)(C2=O)[C@H]1[C@@H](O)C(=O)O [DEMETHYL-3-DETIGLOYLISOSWIETENINE] | 10.2% | 14.1% | 21.6% | 214 µg/mL (≈ 454 µM) | –
14 | CCOC(=O)[C@@H](C(=O)OC)[C@H]1C(C)(C)[C@H](O)[C@@H]2CC3=C4CC(=O)O[C@@H](c5ccoc5)[C@]4(C)CC[C@@H]3[C@@]1(C)C2=O [6-O-PROPIONYLSWIETENOLIDE] | 62.6% | 21.4% | 27.1% | 57.1 µg/mL (≈ 105 µM) | –
15 | CC1(C)[C@H](O)[C@@H]2CC3=C4CC(=O)O[C@@H](c5ccoc5)[C@]4(C)CC[C@@H]3[C@@](C)(C2=O)[C@H]1[C@@H](O)C(=O)OO [DEMETHYLISOSWIETENOLIDE] | 32.6% | 9.01% | 24% | 254 µg/mL (≈ 520 µM) | –
16 | COC(=O)[C@H](C(=O)Oc1ccccc1)[C@H]1C(C)(C)[C@H](C(=O)Oc2ccccc2)[C@@H]2CC3=C4CC(=O)O[C@@H](c5ccoc5)[C@]4(C)CC[C@@H]3[C@@]1(C)C2=O [3,6-O,O-DIBENZOYLSWIETENOLIDE] | – | – | – | 416 µg/mL (≈ 599 µM) | –
17 | COC(=O)[C@H](O)[C@H]1C(C)(C)[C@H](C(=O)Oc2ccccc2)[C@@H]2C=C3[C@@H]4CC(=O)O[C@@H](c5ccoc5)[C@]4(C)CC[C@@H]3[C@@]1(C)C2=O [3-O-BENZOYL-3-DETIGLOYLISOSWIETENINE] | 57.8% | 8.18% | 27.1% | 254 µg/mL (≈ 430 µM) | –
18 | CCOC(=O)[C@@H]1[C@@H]2CC3=C4CC(=O)O[C@@H](c5ccoc5)[C@]4(C)CC[C@@H]3[C@@](C)(C2=O)[C@@H]([C@@H](O)C(=O)OC)C1(C)C [3-O-PROPIONYLSWIETENOLIDE] | 41.7% | 18.3% | 16.6% | 53.8 µg/mL (≈ 99.1 µM) | –
19 | CCOC(=O)[C@@H](C(=O)OC)[C@H]1C(C)(C)[C@H](C(=O)OCC)[C@]2(O)C=C3[C@@H]4CC(=O)O[C@@H](c5ccoc5)[C@]4(C)CC[C@@H]3[C@@]1(C)C2=O [3,6-O,O-DIPROPIONYL-3-DETIGLOYL-2-HYDROXYISOSWIETENINE] | 17.5% | 15.8% | 32.7% | 159 µg/mL (≈ 259 µM) | –
20 | COC(=O)COC(=O)[C@@H]1[C@@H]2CC3=C4CC(=O)O[C@@H](c5ccoc5)[C@]4(C)CC[C@@H]3[C@@](C)(C2=O)[C@@H]([C@@H](O)C(=O)OC)C1(C)C [3-O-ACETOXYACETYLSWIETENOLIDE] | 19% | 35.9% | 30.2% | 12.4 µg/mL (≈ 21.1 µM) | –
21 | COC(=O)[C@H](C(=O)Oc1ccccc1)[C@H]1C(C)(C)[C@H](O)[C@@H]2CC3=C4CC(=O)O[C@@H](c5ccoc5)[C@]4(C)CC[C@@H]3[C@@]1(C)C2=O [6-O-BENZOYLSWIETENOLIDE] | 27.1% | 43.8% | 39.5% | 73.2 µg/mL (≈ 124 µM) | –
22 | COC(=O)C(O)[C@H]1C(C)(C)[C@@H](O)[C@@H]2C(=O)[C@]1(C)[C@H]1CC[C@]3(C)[C@@H](CC(=O)O[C@H]3c3ccoc3)[C@]13O[C@@H]23 (stereo partly specified) [3-DETIGLOYLISOSWIETEMAHONIN G] | 49.1% | 45.1% | 54.6% | 107 µg/mL (≈ 213 µM) | –
23 | COC(=O)[C@H](O)[C@H]1C(C)(C)[C@H](C(=O)OC(C)C)[C@@H]2CC3=C4CC(=O)O[C@@H](c5ccoc5)[C@]4(C)CC[C@@H]3[C@@]1(C)C2=O [3-O-ISOBUTYRYLSWIETENOLIDE] | 35.1% | 45.9% | 33.1% | 0.009 µg/mL (≈ 0.0162 µM) | –

Reference: ChEMBL document CHEMBL3045353, “Identification of new limonoids from Swietenia and their biological activity against insects” (Pest Manag Sci, 2010)
